This is an account of results in US8029980B2, “Identification and use of agents that modulate oncogenic transcription agent activity” (The Board of Trustees of the University of Illinois, priority 2006, dated 2011).

The test system of experiment [1] is FoxM1. The experiment is described as follows: FoxM1-responsive firefly luciferase reporter assay in C3-Luc cells. In kind it is cell-based, human. As to conditions: C3-Luc cells without doxycycline induction, increasing concentration. How it is done:
(§1) FIG. 6. Thiostrepton and Siomycin A both inhibit FoxM1 transcriptional activity. […] The next day, the luciferase activity was measured with the Dual-Luciferase reporter assay system (E1910; Promega) according to the manufacturer's instructions.
(§2) The development of U2OS clone C3 cell line with doxycyclin inducible FoxM1-GFP fusion protein has been described before (17). This cell line was transfected with a plasmid expressing firefly luciferase under the control of 6× FoxM1 responsive (FoxRE) promoter (17), along with pcDNA3.1 (Invitrogen, Carlsbad, Calif.) plasmid that expresses neomycin phospho-transferase. […] This clone was further transfected with pRL-CMV (Promega) that expresses renilla luciferase along with pLPCX-puro (Clontech), and the cells were selected in 2 μg/ml puromycin. This cell line which expresses FoxM1-dependent firefly luciferase and constitutive renilla luciferase was named as C3-Luc and used for the screening of compound libraries (Challenge set and Diversity set) from the National Cancer Institute.
(§3) For high-throughput screening, the C3-Luc cells were grown in 96-well plates and treated overnight with a combination of 1 μg/ml doxycycline and 10 μM of compounds from the library. Next day, the firefly and renilla luciferase activities were measured with the Dual Glo system (E2940; Promega).
(§4) For the other luciferase assay experiments, the cells were treated as indicated in the FIG. 1 legend and the luciferase activity was measured using the Dual Luciferase reporter assay system (E1910; Promega) according to the manufacturer's instructions.
(In general: In a reporter assay the amount or activity of a reporter protein is the signal.)

The target in experiment [2] is T1, FoxM1 (Homo sapiens, UniProt Q08050).
T1 construct: expressed in transfected cells; host or cells: U2OS clone C3 / C3-Luc
T1 sequence (Q08050 1-748 isoform Q08050-2): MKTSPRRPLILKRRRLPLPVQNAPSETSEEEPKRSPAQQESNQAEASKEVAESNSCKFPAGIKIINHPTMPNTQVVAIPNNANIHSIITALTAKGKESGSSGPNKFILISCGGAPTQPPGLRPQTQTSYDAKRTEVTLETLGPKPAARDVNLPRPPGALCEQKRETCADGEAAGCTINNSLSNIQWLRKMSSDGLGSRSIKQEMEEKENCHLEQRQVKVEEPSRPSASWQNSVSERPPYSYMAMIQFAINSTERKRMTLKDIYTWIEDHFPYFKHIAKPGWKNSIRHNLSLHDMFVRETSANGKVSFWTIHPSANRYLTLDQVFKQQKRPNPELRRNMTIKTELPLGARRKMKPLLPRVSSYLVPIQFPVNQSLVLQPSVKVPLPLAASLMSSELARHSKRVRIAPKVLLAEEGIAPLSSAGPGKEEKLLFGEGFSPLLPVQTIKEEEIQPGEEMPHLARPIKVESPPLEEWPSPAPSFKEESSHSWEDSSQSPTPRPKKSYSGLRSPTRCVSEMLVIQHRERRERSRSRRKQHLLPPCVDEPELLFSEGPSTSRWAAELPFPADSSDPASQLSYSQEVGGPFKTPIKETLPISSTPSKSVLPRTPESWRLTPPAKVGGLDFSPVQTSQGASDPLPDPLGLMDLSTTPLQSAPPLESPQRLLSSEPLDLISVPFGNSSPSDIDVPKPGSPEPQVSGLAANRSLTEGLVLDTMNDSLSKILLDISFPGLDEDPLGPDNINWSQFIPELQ
The description is as above. It is filed as cell-based. As to conditions: C3-Luc cells. On the procedure:
as §1, §2, §3, §4

A further experiment has as its system survivin, and p21^WAF1. The experiment is described as follows: Immunoblot of survivin and p21WAF1 in C3-Luc cells. In kind it is cell-based, human. As to conditions: 24 hrs. On the procedure: FIG. 2. Siomycin A inhibits endogenous FoxM1 transcriptional activity. (A) C3-Luc cells without doxycycline induction, were treated with increasing dose of Siomycin A and luciferase activity was determined as described in Example 1. (B) C3-Luc cells treated either with DMSO (control) or Siomycin A were harvested 24 hrs later and the RNA was subjected to real-time RT-PCR for quantitation of mRNA levels of FoxM1 target genes Cdc25B, Survivin, and CENPB. (C) C3-Luc cells treated as indicated were harvested 24 hrs later and used for immunoblot analysis to determine the levels of survivin, and p21^WAF1. β-actin protein levels were used as loading control.
(§5) Immunoblotting was performed as described (18-20) with antibodies specific for p21 (556431; BD Pharmingen), survivin (sc-10811; Santa Cruz), cleaved caspase-3 (9664; Cell Signaling), and β-actin (A5441; Sigma) antibodies. Immunoblot for FoxM1 was done using the previously generated rabbit antisera (2), and phospho-FoxM1 was detected using the MPM2 monoclonal antibody (Upstate Biotechnology) which recognizes the phosphorylated protein sequence phosphoserine/phosphothreonine-proline.
(A western blot detects proteins with antibodies after separation by electrophoresis.)

Experiment [3] has as its system HCT116 colon cancer cells. The settings on record: another study (ref. 27); cited from earlier work.
A further experiment relates to 293 and Hela cells. The experiment is described as follows: Sensitization to TNF-alpha-induced apoptosis (cleaved caspase-3 immunoblot). In kind it is cell-based, human. As to conditions: 1 μM Siomycin A and 10 ng/ml TNF-alpha, 24 hours. On the procedure: FIG. 14. […] 293 (A) and Hela (B) cells were pretreated with the indicated concentrations of Sulfazalazine (control) for overnight. The following day the cells were treated with 1 μM Siomycin A and 10 ng/ml TNF-alpha as indicated. Twenty-four hours later the cells were harvested and the total cell lysates were used to determine the level of cleaved caspase-3. β-actin was used as the loading control.

Experiment [4] has as its system Wild type MRC-5 human fetal lung fibroblasts. As to the kind of experiment: Apoptosis assay (DAPI staining, caspase-3 and survivin immunoblot) in normal fibroblasts. It is filed as cell-based. How it is done:
FIG. 4. Anti-cancer properties of Siomycin A. (A) Representative photographs from soft agar experiment as described in Example 1 are shown. (B) Number of colonies in the soft agar were quantitated and plotted in the form of bar graphs. (C) Wild type and SV40-transformed MRC-5 human fetal lung fibroblasts were treated with indicated concentrations of Siomycin A for 48 hrs. Photographs from phase contrast microscopy (top panel) and fluorescent microscopy after DAPI staining (bottom panel) are shown. (D) Apoptotic nuclei from normal and SV40-transformed MRC-5 fibroblasts treated with indicated concentrations of Siomycin A for 24 hrs were scored after DAPI staining and percentage cell death (mean±sd; n=3) is shown. (E) Wild type and SV40-transformed MRC-5 fibroblasts were treated with Siomycin A as indicated for 48 hrs and the cell lysates were used for immunoblotting and probed for levels of survivin and cleaved caspase-3.
as §5
Apoptosis was detected by DAPI (4′,6-diamidino-2-phenylindole) staining. All treatments were done in triplicates in 6-well plates and cells were stained with DAPI and visualized by fluorescent microscopy. Four random fields for each sample were photographed and at least 500 cells per field were counted to estimate apoptosis. The data is represented as mean±sd.

[5] abbreviates: normal cells, 48 hrs, immunoblot.

As for `C=C(NC(=O)C(=C)NC(=O)c1csc(C2=N[C@@H]3c4csc(n4)[C@H]4NC(=O)c5csc(n5)[C@H]([C@](C)(O)[C@@H](C)O)NC(=O)[C@H]5CSC(=N5)/C(=C/C)NC(=O)[C@H]([C@@H](C)O)NC(=O)c5csc(n5)[C@]3(CC2)NC(=O)[C@H](C)NC(=O)C(=C)NC(=O)C(=C)NC(=O)[C@H](C(C)C)N[C@@H]2C=Cc3c([C@H](C)O)cc(nc3[C@H]2O)C(=O)O[C@@H]4C)n1)C(N)=O` [Siomycin A], in the experiment with FoxM1 [1], the “firefly luciferase activity conferred by the FoxM1-responsive promoter (endogenous FoxM1)” value is “dose-dependent decrease”. The “relative firefly luciferase activity (FoxM1 transcriptional activity)” value on FoxM1 [2] (1 μg/mL doxycycline (60-fold induction), 5 μM compound, 24 hrs) was “efficiently reduced the value to basal levels”. In addition, the “relative firefly luciferase activity (exogenous FoxM1 transcriptional activity)” value on FoxM1 [2] (1 μg/ml doxycycline induction (~16-fold), 10 μM compound, overnight) was “efficiently reduced the value to basal levels”. In the experiment on survivin, and p21^WAF1, the “p21^WAF1 protein levels” value is listed as “increase in its protein levels” and the “protein levels of survivin” value is on record as “dramatically reduced”. Further, the “cell death mechanism in HCT116 cells” value in experiment [3] was “induced Endoplasmic reticulum stress, and lysosomal membrane permeabilization followed by cell death”. In addition, the “sensitization to TNF-alpha-induced apoptosis” value in the experiment with 293 and Hela cells is “sensitize human cancer cells to TNF-alpha-induced apoptosis”. For the same molecule, in experiment [4] (setting [5]), the “cleavage of caspase-3” value was “but not normal cells showed cleavage of caspase-3” and the survivin levels entry is reported as “effectively repress survivin levels”. The “apoptosis / cell death” value in experiment [4] (untransformed normal cells, forty-eight hours after treatment) is recorded as “did not exhibit significant cell death”.
